Laboratory results reported in patent US12077503B2, “Substituted cyclic amides and their use as herbicides” (FMC CORPORATION, priority 2015, dated 2024).

Legend:
Type in all cases: in vivo
[1] = tested on: velvetleaf (Abutilon theophrasti); test: Test G Post-Emergence Protocol; conditions: Abutilon theophrasti, post-emergence, 312 h
Outline: (§1)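 A glasshouse post-emergence test: 8-day-old plants sprayed at 15.625, 62.5 or 250 g/ha, then grown at 24/16 °C day/night with 14 h light and 65% humidity. Damage rated 13 days later, 0–100.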

[2] = tested on: redroot pigweed (Amaranthus retroflexus); test: Test G Post-Emergence Protocol; conditions: Amaranthus retroflexus, post-emergence, 312 h
Outline: as §1

[3] = tested on: giant foxtail (Setaria faberi); test: Test G Post-Emergence Protocol; conditions: Setaria faberi, post-emergence, 312 h
Outline: as §1

[4] = tested on: barnyardgrass (Echinochloa crus-galli); test: Test G Post-Emergence Protocol; conditions: Echinochloa crus-galli, post-emergence, 312 h
Outline: as §1

[5] = tested on: ivy-leaved morning glory (Ipomoea hederacea); test: Test G Post-Emergence Protocol; conditions: Ipomoea, post-emergence, 312 h
Outline: as §1

corn (Zea mays) [6] = test: Test G Post-Emergence Protocol; conditions: Zea mays, post-emergence, 312 h
Outline: as §1

[7] = tested on: velvetleaf (Abutilon theophrasti); test: Test G Pre-Emergence Protocol; conditions: Abutilon theophrasti, pre-emergence, 312 h, evaluated after 13 days
Outline: (§2)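 Spraying took place one day after sowing, at 15.625, 62.5 or 250 g/ha, using an acetone/water (50:50) spray solution containing 0.5% Tween 20. Plants were kept under glasshouse conditions (24/16 °C, 14 h light, 65% humidity, watered twice daily), and injury was rated 0–100 at day 13.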

[8] = tested on: redroot pigweed (Amaranthus retroflexus); test: Test G Pre-Emergence Protocol; conditions: Amaranthus retroflexus, pre-emergence, 312 h, evaluated after 13 days
Outline: as §2

[9] = tested on: giant foxtail (Setaria faberi); test: Test G Pre-Emergence Protocol; conditions: Setaria faberi, pre-emergence, 312 h, evaluated after 13 days
Outline: as §2

[10] = tested on: barnyardgrass (Echinochloa crus-galli); test: Test G Pre-Emergence Protocol; conditions: Echinochloa crus-galli, pre-emergence, 312 h, evaluated after 13 days
Outline: as §2

[11] = tested on: ivy-leaved morning glory (Ipomoea hederacea); test: Test G Pre-Emergence Protocol; conditions: Ipomoea, pre-emergence, 312 h, evaluated after 13 days
Outline: as §2

corn (Zea mays) [12] = test: Test G Pre-Emergence Protocol; conditions: Zea mays, pre-emergence, 312 h, evaluated after 13 days
Outline: as §2

Which results are given for `CN1C[C@@H](c2ccc(C(F)(F)F)cc2)[C@H](C(=O)Nc2ccc(Cl)nc2)C1=O` (racemic) [Compound 1525]?
pest or weed control at 15.625 g/ha ([1]; 15.625 g ai/ha, evaluated after 13 days (100=total damage to plant; 0=no damage to plant), read-out: Velvetleaf damage rating): 0%; pest or weed control at 62.5 g/ha ([1]; 62.5 g ai/ha, evaluated after 13 days, read-out: Velvetleaf damage rating (100=total damage to plant; 0=no damage to plant)): 0%; pest or weed control at 250 g/ha ([1]; 250 g ai/ha, evaluated after 13 days, read-out: damage to plant, Velvetleaf (100=total damage to plant; 0=no damage to plant)): 0%; pest or weed control at 15.625 g/ha ([2]; 15.625 g ai/ha, evaluated after 13 days (100=total damage to plant; 0=no damage to plant), read-out: Pigweed, Redroot damage rating): 0%; pest or weed control at 62.5 g/ha ([2]; 62.5 g ai/ha, evaluated after 13 days, read-out: Pigweed, Redroot damage rating (100=total damage to plant; 0=no damage to plant)): 0%; pest or weed control at 250 g/ha ([2]; 250 g ai/ha, evaluated after 13 days, read-out: damage to plant, Pigweed, Redroot (100=total damage to plant; 0=no damage to plant)): 0%; pest or weed control at 15.625 g/ha ([3]; 15.625 g ai/ha, evaluated after 13 days (100=total damage to plant; 0=no damage to plant), read-out: Foxtail, Giant damage rating): 0%; pest or weed control at 62.5 g/ha ([3]; 62.5 g ai/ha, evaluated after 13 days, read-out: Foxtail, Giant damage rating (100=total damage to plant; 0=no damage to plant)): 0%; pest or weed control at 250 g/ha ([3]; 250 g ai/ha, evaluated after 13 days, read-out: damage to plant, Foxtail, Giant (100=total damage to plant; 0=no damage to plant)): 10%; pest or weed control at 15.625 g/ha ([4]; 15.625 g ai/ha, evaluated after 13 days (100=total damage to plant; 0=no damage to plant), read-out: Barnyardgrass damage rating): 0%; pest or weed control at 62.5 g/ha ([4]; 62.5 g ai/ha, evaluated after 13 days, read-out: Barnyardgrass damage rating (100=total damage to plant; 0=no damage to plant)): 0%; pest or weed control at 250 g/ha ([4]; 250 g ai/ha, evaluated after 13 days, read-out: damage to plant, Barnyardgrass (100=total damage to plant; 0=no damage to plant)): 0%; pest or weed control at 15.625 g/ha ([5]; 15.625 g ai/ha, evaluated after 13 days (100=total damage to plant; 0=no damage to plant), read-out: Morningglory, Ivy-leaved damage rating): 0%; pest or weed control at 62.5 g/ha ([5]; 62.5 g ai/ha, evaluated after 13 days, read-out: Morningglory, Ivy-leaved damage rating (100=total damage to plant; 0=no damage to plant)): 0%; pest or weed control at 250 g/ha ([5]; 250 g ai/ha, evaluated after 13 days, read-out: damage to plant, Morningglory, Ivy-leaved (100=total damage to plant; 0=no damage to plant)): 20%; plant injury at 15.625 g/ha (corn (Zea mays) [6]; 15.625 g ai/ha, evaluated after 13 days (100=total damage to plant; 0=no damage to plant), read-out: Corn damage rating): 0%; plant injury at 62.5 g/ha (corn (Zea mays) [6]; 62.5 g ai/ha, evaluated after 13 days, read-out: Corn damage rating (100=total damage to plant; 0=no damage to plant)): 0%; plant injury at 250 g/ha (corn (Zea mays) [6]; 250 g ai/ha, evaluated after 13 days, read-out: damage to plant, Corn (100=total damage to plant; 0=no damage to plant)): 10%; pest or weed control at 15.625 g/ha ([7]; 15.625 g ai/ha, read-out: Velvetleaf damage rating (100=total damage to plant; 0=no damage to plant)): 0%; pest or weed control at 62.5 g/ha ([7]; 62.5 g ai/ha, 100=total damage to plant, 0=no damage to plant, read-out: plant damage rating, Velvetleaf): 0%; pest or weed control at 250 g/ha ([7]; 250 g ai/ha, read-out: Velvetleaf damage rating (100=total damage to plant; 0=no damage to plant)): 0%; pest or weed control at 15.625 g/ha ([8]; 15.625 g ai/ha, read-out: Pigweed, Redroot damage rating (100=total damage to plant; 0=no damage to plant)): 0%; pest or weed control at 62.5 g/ha ([8]; 62.5 g ai/ha, 100=total damage to plant, 0=no damage to plant, read-out: plant damage rating, Pigweed, Redroot): 0%; pest or weed control at 250 g/ha ([8]; 250 g ai/ha, read-out: Pigweed, Redroot damage rating (100=total damage to plant; 0=no damage to plant)): 0%; pest or weed control at 15.625 g/ha ([9]; 15.625 g ai/ha, read-out: Foxtail, Giant damage rating (100=total damage to plant; 0=no damage to plant)): 0%; pest or weed control at 62.5 g/ha ([9]; 62.5 g ai/ha, 100=total damage to plant, 0=no damage to plant, read-out: plant damage rating, Foxtail, Giant): 10%; pest or weed control at 250 g/ha ([9]; 250 g ai/ha, read-out: Foxtail, Giant damage rating (100=total damage to plant; 0=no damage to plant)): 30%; pest or weed control at 15.625 g/ha ([10]; 15.625 g ai/ha, read-out: Barnyard grass damage rating (100=total damage to plant; 0=no damage to plant)): 0%; pest or weed control at 62.5 g/ha ([10]; 62.5 g ai/ha, 100=total damage to plant, 0=no damage to plant, read-out: plant damage rating, Barnyardgrass): 0%; pest or weed control at 250 g/ha ([10]; 250 g ai/ha, read-out: Barnyardgrass damage rating (100=total damage to plant; 0=no damage to plant)): 40%; pest or weed control at 15.625 g/ha ([11]; 15.625 g ai/ha, read-out: Morning-glory, Ivy-leaved damage rating (100=total damage to plant; 0=no damage to plant)): 0%; pest or weed control at 62.5 g/ha ([11]; 62.5 g ai/ha, 100=total damage to plant, 0=no damage to plant, read-out: plant damage rating, Morningglory, Ivy-leaved): 0%; pest or weed control at 250 g/ha ([11]; 250 g ai/ha, read-out: Morningglory, Ivy-leaved damage rating (100=total damage to plant; 0=no damage to plant)): 0%; plant injury at 15.625 g/ha (corn (Zea mays) [12]; 15.625 g ai/ha, read-out: Corn damage rating (100=total damage to plant; 0=no damage to plant)): 0%; plant injury at 62.5 g/ha (corn (Zea mays) [12]; 62.5 g ai/ha, 100=total damage to plant, 0=no damage to plant, read-out: plant damage rating, Corn): 0%; plant injury at 250 g/ha (corn (Zea mays) [12]; 250 g ai/ha, read-out: Corn damage rating (100=total damage to plant; 0=no damage to plant)): 0%
